Molecular target: T1, human GlyT-2 (Homo sapiens, UniProt Q9Y345)
T1 construct: expressed in transfected cells; elsewhere 'preferably QT-6 cells derived from quail fibroblasts'
T1 sequence (Q9Y345 1-797): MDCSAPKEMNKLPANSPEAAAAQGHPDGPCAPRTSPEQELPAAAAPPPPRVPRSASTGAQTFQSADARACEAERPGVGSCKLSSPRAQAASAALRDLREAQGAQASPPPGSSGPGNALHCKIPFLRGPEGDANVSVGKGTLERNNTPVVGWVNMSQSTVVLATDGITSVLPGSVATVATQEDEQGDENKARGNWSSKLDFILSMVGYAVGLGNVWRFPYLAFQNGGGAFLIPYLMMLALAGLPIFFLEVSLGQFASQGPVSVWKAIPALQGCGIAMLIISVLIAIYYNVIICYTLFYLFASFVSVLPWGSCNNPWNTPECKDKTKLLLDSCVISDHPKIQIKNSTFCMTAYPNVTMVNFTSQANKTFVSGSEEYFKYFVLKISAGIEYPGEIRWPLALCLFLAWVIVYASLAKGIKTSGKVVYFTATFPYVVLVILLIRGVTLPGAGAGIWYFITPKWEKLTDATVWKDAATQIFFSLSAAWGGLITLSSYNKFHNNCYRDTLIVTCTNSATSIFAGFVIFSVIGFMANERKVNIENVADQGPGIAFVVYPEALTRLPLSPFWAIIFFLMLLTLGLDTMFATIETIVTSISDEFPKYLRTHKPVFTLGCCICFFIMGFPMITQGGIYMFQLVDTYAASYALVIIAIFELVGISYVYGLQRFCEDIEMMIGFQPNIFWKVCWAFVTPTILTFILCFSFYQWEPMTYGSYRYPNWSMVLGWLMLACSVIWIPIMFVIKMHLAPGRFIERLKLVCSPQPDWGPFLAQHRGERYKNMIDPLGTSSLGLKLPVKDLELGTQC
Assay: Assay of transport via GlyT-2 transporters: [3H]glycine uptake by stably transfected cultured cells
Assay type: cell-based
Details: cells stably transfected with human GlyT-2; 50 nM [3H]glycine; ten minutes at 37° C.; read-out: GlyT1 uptake IC50
Experimental: This example illustrates a method for the measurement of glycine uptake by transfected cultured cells.
Cells stably transfected with human GlyT-2 (the homolog of the rat GlyT-2 described by Liu et al., J. Biological Chemistry, 268, 1993:22802-22808) were washed twice with HEPES buffered saline (HBS). The cells were then incubated ten minutes at 37° C., after which a solution containing 50 nM [^3H]glycine (17.5 Ci/mmol) and either (a) no potential competitor, (b) […] or (c) a concentration of a candidate drug. A range of concentrations of the candidate drug was used to generate data for calculating the concentration resulting in 50% of the effect (e.g., the IC50's which are the concentration of drug inhibiting glycine uptake by 50%). The cells were then incubated another ten minutes at 37° C., after which the cells were aspirated and washed three times with ice-cold HBS. The cells were solubilized in scintillant, shaken for thirty minutes, and the radioactivity in the cells was counted using a scintillation counter. Data were compared between the same cells contacted and not contacted by the candidate agent.

An IC50 of 90.8 nM was found for `COc1ccc(NC(=S)N[C@H](CC(C)C)C(=O)Nc2c(C)cccc2C)c([N+](=O)[O-])c1` [E51.1*] in this work.

An IC50 of 77.4 nM was found for `Cc1ccccc1NC(=O)[C@H](NC(=S)Nc1ccccc1[N+](=O)[O-])c1ccccc1` [Example E4.2] in this work.

An IC50 of 172 nM was found for `CCOc1ccc(NC(=S)NC(C(=O)Nc2ccccc2C)c2ccccc2)c([N+](=O)[O-])c1` (stereo not shown) [Example E4.3, N-(2-methylphenyl)-2-[3-(4-ethoxy-2-nitrophenyl)-thioureido]-2-phenyl acetamide] in this work.

An IC50 of 83.8 nM was found for `COc1ccc(NC(=S)NC(C(=O)Nc2ccccc2C)c2ccccc2)c([N+](=O)[O-])c1` (stereo not shown) [Example E4.4, N-(2-methylphenyl)-2-[3-(2-nitro-4-methoxyphenyl)-thioureido]-2-phenyl acetamide] in this work.

An IC50 of 52.2 nM was found for `COc1ccc(NC(=S)NC(C(=O)Nc2c(C)cccc2C(C)C)c2ccccc2)c([N+](=O)[O-])c1` (stereo not shown) [Example E28.1, N-(2-isopropyl-6-methylphenyl)-2-[3-(4-methoxy-2-nitrophenyl)-thioureido]-2-phenyl acetamide] in this work.

An IC50 of 22.8 nM was found for `COc1ccc(NC(=S)NC(C(=O)Nc2c(C)cccc2Cl)c2ccccc2)c([N+](=O)[O-])c1` (stereo not shown) [Example E29.1, N-(2-chloro-6-methylphenyl)-2-[3-(4-methoxy-2-nitrophenyl)-thioureido]-2-phenyl acetamide] in this work.

An IC50 of 49.2 nM was found for `CCOc1ccc(NC(=S)NC(C(=O)Nc2c(C)cccc2C)c2ccccc2)c([N+](=O)[O-])c1` (stereo not shown) [Example E33.1, N-(2,6-dimethylphenyl)-2-[3-(4-ethoxy-2-nitrophenyl)-thioureido]-2-phenyl acetamide] in this work.

An IC50 of 48 nM was found for `Cc1cccc(C)c1NC(=O)C(NC(=S)Nc1ccccc1S(=O)(=O)N(C)C)c1ccccc1` (stereo not shown) [Example E33.2, N-(2,6-dimethylphenyl)-2-[3-(2-N,N-dimethylsulphonamidophenyl)-thioureido]-2-phenyl acetamide] in this work.

An IC50 of 182 nM was found for `Cc1cccc(C)c1NC(=O)C(NC(=S)Nc1ccc(OCCN(C)C)cc1[N+](=O)[O-])c1ccccc1` (stereo not shown) [Example E33.4, N-(2.6-dimethylphenyl)-2-[3-(4-(2-N,N-dimethylamino)ethoxy-2-nitrophenyl)-thioureido]-2-phenyl acetamide] in this work.

An IC50 of 14.2 nM was found for `Cc1cccc(C)c1NC(=O)C(NC(=S)Nc1ccc(S(=O)(=O)N(C)C)cc1[N+](=O)[O-])c1ccccc1` (stereo not shown) [Example E33.5] in this work.

An IC50 of 34.4 nM was found for `COc1ccc(NC(=S)NC(C(=O)Nc2c(C)cccc2C)c2ccccc2)c([N+](=O)[O-])c1` (stereo not shown) [Example E33.6, N-(2,6-dimethylphenyl)-2-[3-(4-methoxy-2-nitrophenyl)-thioureido]-2-phenyl acetamide] in this work.

An IC50 of 115 nM was found for `Cc1cccc(C)c1NC(=O)C(NC(=S)Nc1ccc(OCCN(C)C)cc1C(F)(F)F)c1ccccc1` (stereo not shown) [Example E33.8, N-(2.6-dimethylphenyl)-2-[3-(4-N,N-dimethylaminoethoxy-2-trifluoromethylphenyl)-thioureido]-2-phenyl acetamide] in this work.

An IC50 of 112 nM was found for `COc1ccc(NC(=S)NC(CC(C)C)C(=O)Nc2c(C)cccc2C)c([N+](=O)[O-])c1` (stereo not shown) [Example E51.3, N-(2.6-dimethylphenyl)-2-[3-(4-methoxy-2-nitrophenyl)-thioureido]-4-methylpentanamide] in this work.

Source: US20040152740A1, “Arylglycine derivatives for use as glycine transport inhibitors” (NPS Allelix Corporation, priority 2002, published 2004)
